Assay results as given in the NIST ThermoML archive (doi:10.1016/j.fluid.2015.09.050).

Conditions: Liquid, pendant drop method

C [methane] + O
Conditions | interfacial tension [mN/m]
311 K, 3390 kPa | 66.03
311 K, 7540 kPa | 59.95
311 K, 14380 kPa | 57.94
311 K, 28210 kPa | 52.29
311 K, 44730 kPa | 51.43
311 K, 61300 kPa | 49.28
311 K, 81600 kPa | 50.39
373.2 K, 3650 kPa | 54.76
373.2 K, 10070 kPa | 50.64
373.2 K, 21140 kPa | 48.29
373.2 K, 30540 kPa | 45.02
373.2 K, 51020 kPa | 42.2
373.2 K, 60310 kPa | 41.61
373.2 K, 71050 kPa | 41.92
373.2 K, 82760 kPa | 41.93
423.2 K, 2740 kPa | 49.23
423.2 K, 7290 kPa | 46.41
423.2 K, 17170 kPa | 42.69
423.2 K, 27790 kPa | 40.72
423.2 K, 38470 kPa | 38.35
423.2 K, 48440 kPa | 39.43
423.2 K, 62280 kPa | 38.6
423.2 K, 75910 kPa | 39.19
423.2 K, 89770 kPa | 38.67
473.2 K, 2410 kPa | 40.35
473.2 K, 14090 kPa | 34.86
473.2 K, 21220 kPa | 34.2
473.2 K, 34790 kPa | 32.44
473.2 K, 51540 kPa | 30.53
473.2 K, 70120 kPa | 31.46
473.2 K, 83440 kPa | 30.74
